Consider 4 compounds from patent US9809616B2, “Pyrimidine nucleosides and their monophosphate prodrugs for the treatment of viral infections and cancer” (Cocrystal Pharma, Inc., priority 2012, dated 2017).

The structures appear in SMILES notation.

This data set concerns Huh-7 cells. Briefly: LC/MS analysis of nucleotides formed after 4 hr incubation of 50 μM drug in Huh-7 cells. The note with it: 4 hr incubation in Huh-7 cells. Type of data set: in vitro ADME. As for the experimental part:
Shown below are two examples of the LC/MS qualitative analysis of nucleotides formed after 4 h incubation of 50 μM N^4-hydroxycytidine nucleosides and N^4-hydroxycytidine monophosphate prodrugs in Huh-7 cells.

`C[C@@]1(O)[C@H](O)[C@@H](CO)O[C@H]1n1ccc(NO)nc1=O` [Compound 37, 1-((2R,3R,4R,5R)-3,4-dihydroxy-5-(hydroxymethyl)-3-methyltetrahydrofuran-2-yl)-4-(hydroxyamino)pyrimidin-2(1H)-one]: the “Metabolite 2′-OH-2′-Me-U formed in cells” value was “BLOQ”, the “Metabolite 2′-OH-2′-Me-UDP formed in cells” value was “BLOQ”, the “Metabolite 2′-OH-2′-Me-UMP formed in cells” value was “BLOQ” and the “Metabolite 2′-OH-2′-Me-UTP formed in cells” value is listed as “BLOQ”. For the same compound, the “Metabolite 36-DP formed in cells” value was “BLOQ”, the “Metabolite 36-MP formed in cells” value is “BLOQ”, the “Metabolite 36-TP formed in cells” value is recorded as “BLOQ” and the “Metabolite 36 formed in cells” value is “BLOQ”. Moreover, the “Metabolite 37-DP formed in cells” value is “BLOQ”, the “Metabolite 37-MP formed in cells” value is “BLOQ” and the “Metabolite 37 in cells” value was “BLOQ”.

Turning to `C[C@@]1(F)[C@H](O)[C@@H](CO)O[C@H]1n1ccc(NO)nc1=O` [Compound 39, 1-((2R,3R,4R,5R)-3-fluoro-4-hydroxy-5-(hydroxymethyl)-3-methyltetrahydrofuran-2-yl)-4-(hydroxyamino)pyrimidin-2(1H)-one], the “Metabolite 2′-F-2′-Me-U formed in cells” value was “BLOQ”, the “Metabolite 2′-F-2′-Me-UDP formed in cells” value is “BLOQ”, the “Metabolite 2′-F-2′-Me-UMP formed in cells” value is listed as “BLOQ” and the “Metabolite 38-MP formed in cells” value is given as “BLOQ”. The “Metabolite 38 formed in cells” value is reported as “BLOQ”, the “Metabolite 39-DP formed in cells” value was “BLOQ”, the “Metabolite 39-MP formed in cells” value is listed as “BLOQ” and the “Metabolite 39-TP formed in cells” value is recorded as “BLOQ”.

As for `CCOC(=O)[C@H](C)NP(=O)(OC[C@H]1O[C@@H](n2ccc(NO)nc2=O)[C@](C)(O)[C@@H]1O)Oc1ccccc1` (stereo partly drawn) [Compound 44, (2S)-ethyl 2-(((((2R,3R,4R,5R)-3,4-dihydroxy-5-(4-(hydroxyamino)-2-oxopyrimidin-1(2H)-yl)-4-methyltetrahydrofuran-2-yl)methoxy)(phenoxy)phosphoryl)amino)propanoate], the “Metabolite 2′-OH-2′-Me-U formed in cells” value is “BLOQ”, the “Metabolite 2′-OH-2′-Me-UDP formed in cells” value was “BLOQ”, the “Metabolite 2′-OH-2′-Me-UMP formed in cells” value is on record as “BLOQ” and the “Metabolite 36-MP formed in cells” value is listed as “BLOQ”. Besides, the “Metabolite 36 formed in cells” value is reported as “BLOQ”, the “Metabolite 37 in cells” value is given as “BLOQ” and the “Metabolite 44 (prodrug) in cells” value turned out to be 13.3 ± 1.7 pmol/10^6 cells.

With `CCOC(=O)[C@H](C)NP(=O)(OC[C@H]1O[C@@H](n2ccc(NO)nc2=O)[C@](C)(F)[C@@H]1O)Oc1ccccc1` (stereo partly drawn) [Compound 51, (2S)-ethyl 2-(((((2R,3R,4R,5R)-4-fluoro-3-hydroxy-5-(4-(hydroxyamino)-2-oxopyrimidin-1(2H)-yl)-4-methyltetrahydrofuran-2-yl)methoxy)(phenoxy)phosphoryl)amino)propanoate], the “Metabolite 2′-F-2′-Me-U formed in cells” value is reported as “BLOQ”, the “Metabolite 2′-F-2′-Me-UDP formed in cells” value was “BLOQ”, the “Metabolite 2′-F-2′-Me-UMP formed in cells” value was “BLOQ” and the “Metabolite 51 (prodrug) in cells” value is recorded as 71.5 ± 2.3 pmol/10^6 cells.
